Patent US20210322509A1, “Methods for Reducing Perinatal Morbidity and / or Mortality” (CHU SAINTE-JUSTINE, priority 2016, published 2021)
Non-standard residues stand in square brackets, D forms with d. Residues, ends and D or L forms follow the SMILES beside them. ξ: configuration not given here. dThr(3ξ) = CC(O)[C@@H](N)C(=O)O

System: Il1a, Il1b, Il6 and Tnfa mRNA in fetal head
Test: LPS-induced cytokine gene expression in fetal brain (qPCR)
Format: in vivo, C57Bl/6 mice
Procedure: FIGS. 10A to 10D show the induction of pro-inflammatory cytokines in fetal brain after maternal LPS administration is suppressed by compound 2 (cmpd2) in mice. C57Bl/6 mice were mated to males of the same genotype, administered LPS with or without compound 2 and fetal head were recovered. Relative expression of Il1a (FIG. 10A), IL6 (FIG. 10B), TNF (FIG. 10C) and IL1B (FIG. 10D) mRNAs were determined in each tissue by qPCR and normalized to Actb. Data are shown as mean±SEM relative gene expression in tissue pooled from two implantation sites with n=6 dams/group. The effect of LPS and compound 2 was analyzed by Kruskal-Wallis and Mann-Whitney U-test. #* indicates significant differences between groups, p<0.05.
Animal and treatments. To analyze effects of compound 2 on LPS-induced cytokine expression in the fetal brain after inflammatory stimulus mimicking infection in utero, pregnant female C57Bl/6 female mice (mated with C57Bl/6 males) were injected with 0.5 μg lipopolysaccharide (LPS; Salmonella typhimurium; Sigma-Aldrich®, St. Louis, Mo., USA) in 200 μl PBS i.p., or PBS control, at 1100 h on gd 16.5. Mice were immediately administered compound 2 (1 mg/kg in PBS) or vehicle control (PBS+0.1% BSA) within 5 mins of LPS injection on gd 16.5, then killed 4 h later. Brain tissues were recovered by severing the fetal head from 2 fetuses from each of […] per treatment group.
Expression of inflammatory markers. Messenger RNA (mRNA) was extracted by homogenizing tissues using ceramic beads (Mo Bio) in Trizol® (Ambion® RNA, Carlsbad Calif.). […] Primer pairs specific for published cDNA sequences were designed using Primer Express® software (Applied Biosystems®, Foster City, Calif.) to quantify Il1a, Il1b, Il6 and Tnfa mRNA. […] Data were normalized to β-actin mRNA expression and expressed as ΔΔCT using the formula mRNA level=[…]. […] Data were tested for normality using a Shapiro-Wilk test then analyzed by Kruskal-Wallis and Mann-Whitney U-test since data were not normally distributed. […]

## CC(C)C[C@@H](NC(=O)[C@@H](CCC(=O)O)NC(=O)[C@H](NC(=O)[C@H](NC(=O)[C@@H](Cc1ccc(O)cc1)NC(=O)[C@H](N)CCCNC(=N)N)C(C)O)C(C)C)C(=O)N[C@H](C)C(=O)O (stereo partly drawn) [compound 2] (H-[dR][dY][dThr(3ξ)][dV][dE][dL][dA]-OH)
LPS + compound 2
  expression of Il1a, Il1b and Il6 in fetal head relative to PBS control: no change
Compound 2 alone (no LPS)
  expression of Il1a, Il1b and Il6 in fetal head relative to PBS control: did not significantly alter
Dams given LPS 0.5 μg i.p. gd 16.5 + compound 2 1 mg/kg, 4 h later
  expression of Il1a, IL6, TNF and IL1B in fetal head, reduction relative to LPS alone: 40-60%
